Assay results: patent publication US8389523B2, “Substituted quinoxaline and an agrochemical composition thereof” (Kumiai Chemical Industry Co., Ltd., priority 2007, dated 2013)

Tests used:
Type in all cases: in vivo
Set-up in all cases: scale not given here
[1] = tested on: Amaranthus viridis L.; experiment: Herbicidal effects in upland field soil treatment (Test Example 2); details: 1000 g active ingredient per hectare, 21st day after treatment, criteria of Table 138
In short: (§1)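 Seeds sown in upland soil and covered; surface sprayed with water-diluted wettable powder, 1000 g a.i./ha, spray volume 1000 L/ha. Greenhouse growth, visual herbicidal rating at day 21.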

[2] = tested on: Abutilon theophrasti medicus; experiment: as above; details: 1000 g active ingredient per hectare, 21st day after treatment, criteria of Table 138
In short: as §1

[3] = tested on: Scirpus juncoides Roxb. var. ohwianus. T. Koyama; experiment: Herbicidal effects in paddy field soil treatment (Test Example 1); details: for Herbicidal effects index, Scirpus juncoides Roxb. var. ohwianus. T. Koyama: paddy field soil treatment, 1000 g of the active ingredient per hectare, wettable powder added dropwise on water surface, 21st day after treatment; for herbicidal effect (index) on Scirpus juncoides Roxb. var. ohwianus. T. Koyama: paddy field soil treatment (Test Example 1), criteria of Table 138
In short: (§2)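 Paddy soil pre-emergence test: seeds sown, flooded 3 cm; next day wettable powder in water applied dropwise to water surface, 1000 g a.i./ha; greenhouse; effect rated visually on scale at 21 d post-treatment.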

[4] = tested on: Echinochloa oryzicola Vasing; experiment: as above; details: for Herbicidal effects index, Echinochloa oryzicola Vasing: paddy field soil treatment, 1000 g of the active ingredient per hectare, wettable powder added dropwise on water surface, 21st day after treatment; for herbicidal effect (index) on Echinochloa oryzicola Vasing: paddy field soil treatment (Test Example 1), criteria of Table 138
In short: as §2

[5] = tested on: Monochoria vaginalis (Burm. f.) Presl var. plantaginea (Roxb.) Solms-Laub.; experiment: as above; details: for Herbicidal effects index, Monochoria vaginalis (Burm. f.) Presl var. plantaginea (Roxb.) Solms-Laub.: paddy field soil treatment, 1000 g of the active ingredient per hectare, wettable powder added dropwise on water surface, 21st day after treatment; for herbicidal effect (index) on Monochoria vaginalis (Burm. f.) Presl var. plantaginea (Roxb.) Solms-Laub.: paddy field soil treatment (Test Example 1), criteria of Table 138
In short: as §2

[6] = tested on: Echinochloa crus-galli (L.) P. Beauv. var. crus-galli; experiment: Herbicidal effects in upland field foliar treatment (Test Example 3); details: criteria of Table 138; for herbicidal effect (index) on Echinochloa crus-galli (L.) P. Beauv. var. crus-galli: 1000 g active ingredient per hectare, 14th day after treatment; for herbicidal effects on Echinochloa crus-galli (L.) P. Beauv. var. crus-galli: 1000 g of the active ingredient per hectare, 14th day after the treatment, wettable powder
In short: (§3)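 Greenhouse pot test, upland soil; 2-wk-old plants sprayed from above with water-diluted wettable powder (1000 L/ha spray volume, 1000 g a.i./ha). Regrown in greenhouse; visual herbicidal score on day 14 post-treatment.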

[7] = tested on: Amaranthus viridis L.; experiment: as above; details: criteria of Table 138; for herbicidal effect (index) on Amaranthus viridis L.: 1000 g active ingredient per hectare, 14th day after treatment; for herbicidal effects on Amaranthus viridis L.: 1000 g of the active ingredient per hectare, 14th day after the treatment, wettable powder
In short: as §3

[8] = tested on: Abutilon theophrasti medicus; experiment: as above; details: criteria of Table 138; for herbicidal effect (index) on Abutilon theophrasti medicus: 1000 g active ingredient per hectare, 14th day after treatment; for herbicidal effects on Abutilon theophrasti medicus: 1000 g of the active ingredient per hectare, 14th day after the treatment, wettable powder
In short: as §3

| SMILES | herbicidal effect (index) on Amaranthus viridis L. [1] | herbicidal effect (index) on Abutilon theophrasti medicus [2] | Herbicidal effects index, Scirpus juncoides Roxb. var. ohwianus. T. Koyama [3] | Herbicidal effects index, Echinochloa oryzicola Vasing [4] | Herbicidal effects index, Monochoria vaginalis (Burm. f.) Presl var. plantaginea (Roxb.) Solms-Laub. [5] | herbicidal effect (index) on Echinochloa crus-galli (L.) P. Beauv. var. crus-galli [6] | herbicidal effect (index) on Amaranthus viridis L. [7] | herbicidal effect (index) on Abutilon theophrasti medicus [8] | herbicidal effect (index) on Scirpus juncoides Roxb. var. ohwianus. T. Koyama [3] | herbicidal effect (index) on Echinochloa oryzicola Vasing [4] | herbicidal effect (index) on Monochoria vaginalis (Burm. f.) Presl var. plantaginea (Roxb.) Solms-Laub. [5] | herbicidal effects on Echinochloa crus-galli (L.) P. Beauv. var. crus-galli [6] | herbicidal effects on Amaranthus viridis L. [7] | herbicidal effects on Abutilon theophrasti medicus [8] |
| --- | --- | --- | --- | --- | --- | --- | --- | --- | --- | --- | --- | --- | --- | --- |
| O=C1CCCC(O)=C1C(=O)c1nc2ccccc2n(CC(F)(F)F)c1=O [I-40] | 5 | 5 | 5 | 5 | 5 | 5 | 5 | 5 | – | – | – | – | – | – |
| O=C1CCCC(O)=C1C(=O)c1nc2ccccc2n(-c2ccc3occc3c2)c1=O [I-277] | 5 | 4 | 5 | 5 | 5 | 5 | 5 | 5 | – | – | – | – | – | – |
| CC1(C)CC(=O)C(C(=O)c2cnc3ccccc3n2)=C(O)C1 [comparative compound C, reference compound] | 3 | 0 | – | – | – | – | – | – | 1 | 1 | 2 | 0 | 0 | 4 |
| O=C1CCCC(O)=C1C(=O)c1nc2ccccc2n(-c2cccc(Cl)c2)c1=O [II-11] | 5 | 5 | 5 | 5 | 5 | 5 | 5 | 5 | – | – | – | – | – | – |
| Cc1cnc(-n2c(=O)c(C(=O)C3=C(O)CCCC3=O)nc3ccccc32)cn1 [I-373] | 5 | 5 | 5 | 5 | 5 | 5 | 5 | 5 | – | – | – | – | – | – |
| COc1ccc(-n2c(=O)c(C(=O)C3=C(O)CCCC3=O)nc3c(F)cc(F)cc32)cn1 [I-283] | 5 | 5 | 5 | 4 | 5 | 4 | 5 | 5 | – | – | – | – | – | – |
| CC(C)n1c(=O)c(C(=O)C2=C(O)CCCC2=O)nc2cccnc21 [III-13] | 5 | 5 | 5 | 5 | 5 | – | – | – | – | – | – | 4 | 5 | 5 |
| Cn1c(=O)c(C(=O)C2=C(O)CCCC2=O)nc2cccc(Cl)c21 [I-229] | 5 | 5 | 5 | 4 | 5 | 4 | 5 | 5 | – | – | – | – | – | – |
| Cc1cc(Cn2c(=O)c(C(=O)C3=C(O)CCCC3=O)nc3ccccc32)on1 [I-213] | 5 | 5 | 5 | 4 | 5 | 5 | 5 | 5 | – | – | – | – | – | – |
| CC(C)(C)OC(=O)Cn1c(=O)c(C(=O)C2=C(O)CCCC2=O)nc2ccccc21 [Compound I-99] | 5 | 5 | 5 | 5 | 5 | 5 | 5 | 5 | – | – | – | – | – | – |
| CC1(C)CCC(=O)C(C(=O)c2nc3cccnc3n(-c3ccccc3)c2=O)=C1O [IV-2] | 5 | 5 | 5 | 5 | 5 | – | – | – | – | – | – | 5 | 5 | 5 |
| O=C1CCCC(O)=C1C(=O)c1nc2cccnc2n(-c2ccccc2OC(F)F)c1=O [IV-85] | 5 | 5 | – | – | – | – | – | – | 5 | 5 | 5 | 5 | 5 | 5 |
| N#CCn1c(=O)c(C(=O)C2=C(O)CCCC2=O)nc2ccccc21 [Compound I-102] | 5 | 5 | 5 | 5 | 4 | 5 | 5 | 5 | – | – | – | – | – | – |
| O=C1CCCC(O)=C1C(=O)c1nc2ccccc2n(-c2nncs2)c1=O [I-269] | 5 | 5 | 5 | 5 | 5 | 5 | 5 | 5 | – | – | – | – | – | – |
| COCc1ccc(-n2c(=O)c(C(=O)C3=C(O)CCCC3=O)nc3ccccc32)cc1 [II-149] | 5 | 4 | 5 | 5 | 5 | – | – | – | – | – | – | 5 | 5 | 5 |
| COc1ccc(-n2c(=O)c(C(=O)C3=C(O)CCCC3=O)nc3ccc(Cl)cc32)cc1 [II-196] | 5 | 4 | 5 | 4 | 5 | – | – | – | – | – | – | 5 | 5 | 5 |
| Cc1nc(-n2c(=O)c(C(=O)C3=C(O)CCCC3=O)nc3ccccc32)no1 [I-163] | 5 | 5 | 5 | 4 | 5 | 4 | 5 | 5 | – | – | – | – | – | – |
| O=C1CCCC(O)=C1C(=O)c1nc2ccc(F)cc2n(-c2ccccc2)c1=O [II-241] | 5 | 5 | 5 | 5 | 5 | – | – | – | – | – | – | 5 | 5 | 5 |
